From PMC3896386 (Journal of medicinal chemistry, 2013)
Each block holds one compound with its values, some of them ahead of it.

How the values were obtained:
[1] = target: T1, RyR2-R4496C mutant HEK293 cell line (Mus musculus, UniProt E9Q401, R4495C); details: previously reported; cited from earlier work
[2] = target: T1, RyR2-R4496C mutant HEK293 cell line

T1 sequence (E9Q401 whole entry R4495C): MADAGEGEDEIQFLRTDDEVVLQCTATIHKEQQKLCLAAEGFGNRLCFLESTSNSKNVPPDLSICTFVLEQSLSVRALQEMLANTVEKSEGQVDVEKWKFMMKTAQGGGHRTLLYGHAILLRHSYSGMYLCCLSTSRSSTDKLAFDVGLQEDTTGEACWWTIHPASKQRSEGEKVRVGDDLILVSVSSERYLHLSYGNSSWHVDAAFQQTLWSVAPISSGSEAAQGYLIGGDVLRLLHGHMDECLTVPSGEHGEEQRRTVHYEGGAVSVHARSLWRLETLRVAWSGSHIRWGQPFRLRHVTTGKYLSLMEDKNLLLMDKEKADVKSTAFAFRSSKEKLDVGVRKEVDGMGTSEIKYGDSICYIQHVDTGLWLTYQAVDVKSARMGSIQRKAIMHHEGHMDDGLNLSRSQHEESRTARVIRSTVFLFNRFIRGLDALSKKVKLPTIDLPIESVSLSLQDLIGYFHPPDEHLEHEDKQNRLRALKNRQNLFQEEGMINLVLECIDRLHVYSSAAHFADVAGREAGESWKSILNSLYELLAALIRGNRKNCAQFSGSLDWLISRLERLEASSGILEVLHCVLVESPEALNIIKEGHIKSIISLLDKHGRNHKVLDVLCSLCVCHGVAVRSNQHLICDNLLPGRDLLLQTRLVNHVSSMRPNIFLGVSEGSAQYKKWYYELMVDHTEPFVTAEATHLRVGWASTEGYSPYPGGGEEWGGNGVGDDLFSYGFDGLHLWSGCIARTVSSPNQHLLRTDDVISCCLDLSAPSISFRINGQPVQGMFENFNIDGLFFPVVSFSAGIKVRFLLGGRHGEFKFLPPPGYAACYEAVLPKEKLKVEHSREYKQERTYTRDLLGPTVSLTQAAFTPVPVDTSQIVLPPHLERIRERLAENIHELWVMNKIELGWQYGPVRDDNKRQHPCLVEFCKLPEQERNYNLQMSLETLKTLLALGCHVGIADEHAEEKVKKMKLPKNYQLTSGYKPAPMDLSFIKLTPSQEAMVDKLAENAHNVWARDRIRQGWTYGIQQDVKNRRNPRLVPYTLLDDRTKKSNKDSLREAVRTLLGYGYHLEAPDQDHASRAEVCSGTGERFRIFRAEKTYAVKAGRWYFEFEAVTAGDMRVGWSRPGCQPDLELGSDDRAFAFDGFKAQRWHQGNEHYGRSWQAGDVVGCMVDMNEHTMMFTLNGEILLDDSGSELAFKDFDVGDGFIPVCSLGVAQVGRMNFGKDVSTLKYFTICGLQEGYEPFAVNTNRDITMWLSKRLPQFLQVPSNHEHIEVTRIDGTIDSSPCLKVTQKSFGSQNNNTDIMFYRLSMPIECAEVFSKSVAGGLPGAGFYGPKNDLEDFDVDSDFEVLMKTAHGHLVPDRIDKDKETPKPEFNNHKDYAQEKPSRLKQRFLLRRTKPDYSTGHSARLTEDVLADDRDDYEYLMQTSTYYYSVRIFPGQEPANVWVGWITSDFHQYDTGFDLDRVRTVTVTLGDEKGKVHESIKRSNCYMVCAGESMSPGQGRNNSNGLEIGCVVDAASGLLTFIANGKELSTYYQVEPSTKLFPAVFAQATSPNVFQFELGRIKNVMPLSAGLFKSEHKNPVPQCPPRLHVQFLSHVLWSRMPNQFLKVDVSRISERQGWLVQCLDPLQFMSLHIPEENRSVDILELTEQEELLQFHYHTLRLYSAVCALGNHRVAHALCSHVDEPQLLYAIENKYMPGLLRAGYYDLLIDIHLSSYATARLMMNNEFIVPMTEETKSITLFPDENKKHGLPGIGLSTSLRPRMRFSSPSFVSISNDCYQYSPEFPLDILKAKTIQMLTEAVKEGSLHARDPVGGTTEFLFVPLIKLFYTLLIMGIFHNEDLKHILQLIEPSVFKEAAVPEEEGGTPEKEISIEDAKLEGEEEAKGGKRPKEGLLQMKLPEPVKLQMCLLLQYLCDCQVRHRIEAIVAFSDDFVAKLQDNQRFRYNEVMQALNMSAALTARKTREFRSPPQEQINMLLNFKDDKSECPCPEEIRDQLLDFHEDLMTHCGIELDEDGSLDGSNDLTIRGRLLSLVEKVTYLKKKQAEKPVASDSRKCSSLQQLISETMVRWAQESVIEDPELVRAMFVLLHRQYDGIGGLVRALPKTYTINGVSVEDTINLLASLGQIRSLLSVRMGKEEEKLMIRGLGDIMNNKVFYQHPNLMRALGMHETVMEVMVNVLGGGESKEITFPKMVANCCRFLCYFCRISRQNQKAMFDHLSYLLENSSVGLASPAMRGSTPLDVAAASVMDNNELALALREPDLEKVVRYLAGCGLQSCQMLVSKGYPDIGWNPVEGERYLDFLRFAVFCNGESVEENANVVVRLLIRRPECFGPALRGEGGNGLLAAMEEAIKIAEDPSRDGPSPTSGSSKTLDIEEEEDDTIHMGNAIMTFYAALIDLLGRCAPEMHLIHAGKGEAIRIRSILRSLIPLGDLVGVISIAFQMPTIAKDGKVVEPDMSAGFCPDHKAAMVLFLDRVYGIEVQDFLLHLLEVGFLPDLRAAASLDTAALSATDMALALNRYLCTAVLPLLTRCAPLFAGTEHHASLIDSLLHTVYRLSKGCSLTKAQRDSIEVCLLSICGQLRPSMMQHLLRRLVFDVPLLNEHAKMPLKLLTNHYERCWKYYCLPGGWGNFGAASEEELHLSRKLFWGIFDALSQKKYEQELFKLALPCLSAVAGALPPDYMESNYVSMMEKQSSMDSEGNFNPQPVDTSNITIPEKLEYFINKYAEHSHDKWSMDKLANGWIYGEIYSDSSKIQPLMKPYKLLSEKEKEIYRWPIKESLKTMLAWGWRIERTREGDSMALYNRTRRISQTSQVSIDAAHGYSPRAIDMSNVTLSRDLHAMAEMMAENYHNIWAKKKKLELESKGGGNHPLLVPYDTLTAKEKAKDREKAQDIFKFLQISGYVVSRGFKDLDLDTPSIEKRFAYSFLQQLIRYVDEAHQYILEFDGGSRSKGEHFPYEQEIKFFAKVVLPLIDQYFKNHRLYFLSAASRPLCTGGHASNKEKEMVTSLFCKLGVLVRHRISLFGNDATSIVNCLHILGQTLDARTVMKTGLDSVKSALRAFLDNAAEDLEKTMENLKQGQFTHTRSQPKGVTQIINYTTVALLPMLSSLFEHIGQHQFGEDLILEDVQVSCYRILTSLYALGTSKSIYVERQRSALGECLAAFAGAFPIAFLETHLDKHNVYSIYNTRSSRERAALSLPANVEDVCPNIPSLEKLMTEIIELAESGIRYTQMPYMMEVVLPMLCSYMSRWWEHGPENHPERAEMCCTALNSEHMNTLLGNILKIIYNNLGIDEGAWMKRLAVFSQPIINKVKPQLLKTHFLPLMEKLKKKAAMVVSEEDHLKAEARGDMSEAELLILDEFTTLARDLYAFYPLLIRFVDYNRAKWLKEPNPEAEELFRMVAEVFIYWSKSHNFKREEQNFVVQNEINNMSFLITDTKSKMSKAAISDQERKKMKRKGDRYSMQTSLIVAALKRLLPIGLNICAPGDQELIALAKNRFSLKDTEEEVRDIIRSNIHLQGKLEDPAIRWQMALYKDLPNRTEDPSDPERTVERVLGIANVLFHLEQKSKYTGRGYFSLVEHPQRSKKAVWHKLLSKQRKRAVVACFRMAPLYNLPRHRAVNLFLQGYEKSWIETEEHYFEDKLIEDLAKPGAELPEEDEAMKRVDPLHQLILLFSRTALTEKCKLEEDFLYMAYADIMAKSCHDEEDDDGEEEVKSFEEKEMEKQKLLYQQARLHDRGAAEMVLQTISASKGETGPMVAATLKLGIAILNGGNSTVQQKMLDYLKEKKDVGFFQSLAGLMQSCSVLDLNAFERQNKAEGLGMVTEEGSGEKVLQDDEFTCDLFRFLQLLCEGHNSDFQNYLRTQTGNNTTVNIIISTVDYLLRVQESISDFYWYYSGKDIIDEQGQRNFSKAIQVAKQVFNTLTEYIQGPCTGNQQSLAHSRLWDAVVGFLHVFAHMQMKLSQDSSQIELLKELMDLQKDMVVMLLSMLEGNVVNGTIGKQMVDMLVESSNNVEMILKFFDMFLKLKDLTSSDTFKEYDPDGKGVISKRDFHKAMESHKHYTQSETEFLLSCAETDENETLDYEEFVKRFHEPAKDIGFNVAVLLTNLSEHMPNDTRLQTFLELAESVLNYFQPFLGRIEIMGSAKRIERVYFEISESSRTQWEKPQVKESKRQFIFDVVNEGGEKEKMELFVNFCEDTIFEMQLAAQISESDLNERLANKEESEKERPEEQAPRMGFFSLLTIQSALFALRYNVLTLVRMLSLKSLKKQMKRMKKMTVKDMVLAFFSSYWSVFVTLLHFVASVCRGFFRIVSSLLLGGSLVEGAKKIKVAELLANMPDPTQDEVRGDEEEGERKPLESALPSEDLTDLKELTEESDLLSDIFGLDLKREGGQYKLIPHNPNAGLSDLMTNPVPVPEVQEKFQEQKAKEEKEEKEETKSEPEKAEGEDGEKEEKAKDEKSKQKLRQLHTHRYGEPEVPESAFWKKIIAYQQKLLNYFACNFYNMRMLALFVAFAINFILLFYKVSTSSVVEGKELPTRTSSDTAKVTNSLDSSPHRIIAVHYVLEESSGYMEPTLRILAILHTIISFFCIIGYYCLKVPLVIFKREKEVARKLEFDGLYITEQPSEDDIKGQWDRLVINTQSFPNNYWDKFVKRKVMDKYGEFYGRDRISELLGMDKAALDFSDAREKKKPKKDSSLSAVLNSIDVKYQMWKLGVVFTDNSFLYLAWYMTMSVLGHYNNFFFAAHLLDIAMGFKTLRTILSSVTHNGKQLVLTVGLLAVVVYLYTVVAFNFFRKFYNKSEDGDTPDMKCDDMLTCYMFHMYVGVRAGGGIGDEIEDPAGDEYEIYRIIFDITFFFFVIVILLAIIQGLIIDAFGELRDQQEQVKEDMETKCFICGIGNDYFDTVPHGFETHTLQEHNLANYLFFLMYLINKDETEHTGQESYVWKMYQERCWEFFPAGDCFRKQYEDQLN

Structure (SMILES): COc1ccccc1OCCNCC(O)COc1cccc2[nH]c3ccccc3c12 (stereo not drawn) [carvedilol 1, carvedilol]
ability to inhibit SOICR [1]: ca. 10 μmolar

decrease of SOICR-inhibiting activity on lactamization of 34 ([2]; relative to 34): more than 6 fold
Structure (SMILES): COc1ccccc1OCCN1CCC(COc2cccc3[nH]c4ccccc4c23)OCC1=O (stereo not drawn) [compound 35, 7-[(9H-carbazol-4-yloxy)methyl]-4-[2-(2-methoxyphenoxy)ethyl]-1,4-oxazepan-3-one]

decrease of SOICR-inhibiting activity on oxidation of 66 to the sulfone ([2]; relative to 66): more than 10 fold
Structure (SMILES): COc1ccccc1OCCNCC(O)COc1ccc2c(c1)Nc1ccccc1S2(=O)=O (stereo not drawn) [compound 67, 2-(2-Hydroxy-3-{[2-(2-methoxyphenoxy)ethyl]amino}propoxy)-10H-5λ6,10-phenothiazine-5,5-dione]
